Results reported in patent publication US20070161568A1, “Use of GLP-1 peptides” (Novo Nordisk A/S, priority 1996, published 2007).
Read-outs that look alike come from different tables or passages of the source. No end group written: not given here.

Key:
[1] = tested on: food intake in normal human subjects; assay: iv infusion of GLP-1(7-36)amide in a double-blind crossover trial: visual analogue scale ratings and ad libitum lunch energy intake; type: in vivo
Source text: The effect of GLP-1(7-36)amide on food intake in normal human subjects.
Healthy human volunteers (20 subjects) were in a double-blind crossover trial given an iv infusion of 50 pmol/(kg·h) of GLP-1(7-36)amide or saline on separate, but otherwise identical experimental days. The infusion was started at 9.00 and lasted until 15.00. At 9.45 the subjects received a fixed amount of breakfast and at 14.15 they had lunch of an identical composition but ad libitum. The subjects rated their feeling of satiety, hunger, fullness and appetite on a visual analogue scale every half hour. The results are given below: • Satiety: GLP-1>Saline, p=0.006 • Hunger: GLP-1<Saline, p=0.007 • Fullness: GLP-1>Saline, p=0.010 • Appetite: GLP-1<Saline, p=0.007
The energy intake of each subjects was measured. The intakes were 3.9 MJ with GLP-1 and 4.3 MJ with Saline resulting in a p-value of 0.009.

[2] = tested on: appetite suppression in mice; assay: appetite suppression in mice: sucrose consumption, tested immediately after ip injection (Example 2); type: in vivo; details: 85 micrograms (equivalent to 3.4 mg/kg), 10 minute period, p-value 0.002
Method: Test method for measuring appetite suppression in mice.
Mice were deprived of their normal food for two days and given free access to a 20% sucrose solution on the first day of food deprivation. After the two day food deprivation period, the mice were injected intraperitoneally with 0.5 ml of a solution containing the test substance. Immediately after injection, individual mice were placed in one of eight 15 cm square test boxes with a stainless steel grid floor and a glass drinking tube which projected into the box. […] Consumption of the sucrose solution was measured over a 10 minute period by electronically recording the total amount of contact with the sucrose solution during the test session. The degree of appetite suppression produced by a given test substance was determined by statistical comparison of the mean duration of sucrose consumption by control (vehicle treated) mice with that of mice treated with a test substance. The degree of appetite suppression in a treated group of mice was expressed as percent difference between the test and control group's response duration means. […]

food intake in rats = details: cited from earlier work
[3] = healthy human volunteers, iv infusion 50 pmol/(kg·h) vs saline, p=0.007

GLP-1(7-36)amide (HAEGTFTSDVSSYLEGQAAKEFIAWLVKGR-NH2; UniProt P01275 98-127, looked up) [fragment 7-36 of GLP-1 as C-terminal amide]
Satiety (visual analogue scale) ([1]; healthy human volunteers, iv infusion 50 pmol/(kg·h) vs saline, rated every half hour, p=0.006): GLP-1>Saline
Appetite (visual analogue scale) [1, 3]: GLP-1<Saline
Hunger (visual analogue scale) [1, 3]: GLP-1<Saline
Fullness (visual analogue scale) ([1]; healthy human volunteers, iv infusion 50 pmol/(kg·h) vs saline, p=0.010): GLP-1>Saline
suppression of sucrose consumption [2]: 60%

GLP-1: proglucagon fragment 72-108, commonly referred to as GLP-1(1-37) or just GLP-1; in b61 it means GLP-1(7-36)amide
effect on food intake (food intake in rats; administered intracerebroventricularly, Tang-Christensen et al.): profound effect
effect on food intake (food intake in rats; administered intracerebroventricularly, Turton et al.): profound effect
effect on food intake (food intake in rats; peripheral administration, Turton et al.): inactive
effect on food intake (food intake in rats; peripherally administered, Tang-Christensen et al.): no significant effect
energy intake ([1]; ad libitum lunch, iv infusion 50 pmol/(kg·h), saline 4.3 MJ, p-value 0.009): 3.9 mJ

GLP-1(1-36)amide (HDEFERHAEGTFTSDVSSYLEGQAAKEFIAWLVKGR-NH2; UniProt P01275 92-127, looked up, fragment) [GLP-1 fragment 1-36 as C-terminal amide, literature result]
effect on food intake (food intake in rats; route not stated, Tang-Christensen et al.): no effect
